We go through 32 compounds from EP3225590A1 (Université de Strasbourg, priority 2016, dated 2017).

The target in one test is ANR-Y1. In words: Fluorescence titration of ANR-Y1 suspension with analyte, 1:1 single-site binding fit.
Another test addresses ANR-L1. In words: Fluorescence titration of ANR-L1 suspension with analyte, 1:1 single-site binding fit. The note with it: for factor weaker binding in the presence of 50 mM Trp than in the absence: ANR-L1, 50 mM Trp as potential competitor.
A further test addresses ANR-L3. The test can be described thus: Fluorescence titration of ANR-L3 suspension with analyte, 1:1 single-site binding fit.
Another test has as its target ANR-L2. The test can be described thus: Fluorescence titration of ANR-L2 suspension with analyte, 1:1 single-site binding fit.
The target of another test is CB8-D1. The note with it: CB8-D1 (cucurbit[8]uril and dye D1), in water, read-out: Kd (affinity), cited from earlier work.
A further test deals with ANR1. The test can be described thus: Binding of tryptophan to ANR1 at acidic pH (data not shown). The note with it: pH <3.
The conditions of test [1]: cucurbit[7]uril, ref. [9]; read-out: Kd(5-HT); cited from earlier work.
In the next test the target is ANR-Y2. The test can be described thus: Fluorescence titration of ANR-Y2 suspension with analyte, 1:1 single-site binding fit.
The target of another test is ANR-L4. The test can be described thus: Fluorescence titration of ANR-L4 suspension with analyte, 1:1 single-site binding fit.
Another test relates to ANRs. The note with it: 100 µM concentration; ANR-Y2, ANR-L3 and ANR-L5.
Where [2] appears, read: 10 mM HEPES buffer (pH 7.3), ANR 250 µg/mL, >> = less than 10% change in emission intensity at >50 molar excess of analyte, error less than ±20%, read-out: Kd(ANR-Y1).
[3] abbreviates: 10 mM HEPES buffer (pH 7.3), ANR 250 µg/mL, >> = less than 10% change in emission intensity at >50 molar excess of analyte, error less than ±20%, read-out: Kd(ANR-L1).
The mark [4] stands for this setting: ANR-L3 250 µg/mL in 10 mM HEPES buffer, pH 7.3 (aqueous buffer).
The mark [5] stands for this setting: ANR-L1 250 µg/mL, 10 mM HEPES buffer (pH 7.3) with 50 mM tryptophan added, read-out: Kd.
Setting [6] is: stated for the larger-cavity zeolite-Y-based receptors, printed 'with ANR-L2'.
The mark [7] stands for this setting: ANR-Y1 250 µg/mL, 10 mM HEPES buffer (pH 7.3), read-out: single site dissociation constant Kd.
Setting [8] is: read-out: single site dissociation constant Kd, ANR-Y2 250 µg/mL, 10 mM HEPES buffer (pH 7.3).

Several values for one entry are separate records, joined by “and”; a condition that tells them apart may be missing. Equal values may be shown once. Read-outs that look alike come from different tables or passages of the source.

From the text for ANR-L2: (§1) This fitting procedure was used in favour of a Stern-Volmer analysis, because linearized binding plots are known to produce errors in Kd.
(§2) Herein, FA is the intensity at a given analyte concentration and F0 is the emission intensity before analyte addition. ΔF is a measure of the relative emission increase or decrease caused by the analyte. For fully non emissive AB complexes, i.e. when the analyte A is an efficient quencher, ΔF reaches -1. The quantity cA denotes the concentration of the analyte A and cB denotes the concentration of the "binding stations" in the ANR.
(§3) The values Kd and ΔF result from the non-least square fit given the input FA, F0, cA and cB.
(§4) The concentration cA of the analyte follows directly from the concentration of the stock solution and the added volume to the cuvette with the suspension of the ANR. The concentration cB of the single binding sites per ANR suspension is a priori not known. […] This so obtained value cB was then used as a constant for the fitting of the binding isotherms of the weaker binding analytes. […] In addition, it is reassuring to note that the value of the affinity constant Kd is rather insensitive to the concentration cB.
From the text for ANR-L3: as §1, §2, §3, §4
From the text for ANR-L4: as §1, §2, §3, §4
From the text for ANR-Y2: as §1, §2, §3, §4

`O=C(O)Cc1c[nH]c2ccccc12` [indole-3-acetic acid]: the Kd on ANR-Y1 (setting [2]) and at ANR-L1 (setting [3]) was greater than 1000 µM each time.
With `N[C@@H](Cc1c[nH]cn1)C(=O)O` [histidine], the Kd on ANR-Y1 (setting [2]) and on ANR-L1 (setting [3]) was greater than 1000 µM throughout.
On to `Oc1ccccc1O` [catechol], for which the Kd at ANR-Y1 (setting [2]) and at ANR-L1 (setting [3]) was greater than 1000 µM in each case.
Take `NCCc1c[nH]c2ccccc12` [tryptamine]: the Kd at ANR-L3 (setting [4]) was roughly 9 µM; at ANR-L3 (ANR-L3, neat chloroform (absence of acetic acid)), 15 µM; at ANR-L3 (read-out: single site dissociation constant Kd, ANR-L3 250 µg/mL, chloroform:acetic acid (99:1)), 4 µM; at ANR-Y1 (setting [2]), 0.15 µM; on ANR-L1 (setting [3]), 10 µM; on ANR-L1 (setting [5]), 27 µM. Besides, at ANR-L1 (read-out: single site dissociation constant Kd), the Kd came to 3 µM. Moreover, the “factor weaker binding in the presence of 50 mM Trp than in the absence” value (“factor weaker binding in the presence” below) with ANR-L1 was ~ 3.
Consider `NCCc1ccc(O)cc1` [tyramine], for which the “quenching of the emission of ANR-L3” value in the test with ANR-L3 (titration curve shows saturation behaviour) was found to be 30%. Further, the Kd on ANR-Y1 (setting [2]) is 5.7 µM; at ANR-L1 (setting [3]), 27 µM.
`CC(=O)Nc1ccc(O)cc1` [paracetamol]: the Kd on ANR-Y1 (setting [2]) and at ANR-L1 (setting [3]) was greater than 1000 µM in each case.
As to `NCCO` [ethanolamine], the Kd on ANR-Y1 (setting [2]) and on ANR-L1 (setting [3]) was greater than 1000 µM each time.
As for `NC[C@H](O)c1ccc(O)c(O)c1` [norepinephrine], the Kd turned out to be 11 µM at ANR-Y1 (setting [2]); 31 µM on ANR-L1 (setting [3]); 13 µM on ANR-L2 (ANR-L2, zeolite-L based); 26 µM at ANR-L2 (setting [6]).
For the compound `CC(=O)CCc1ccc(O)cc1` [raspberry ketone], the Kd on ANR-Y1 (setting [2]) and on ANR-L1 (setting [3]) was greater than 1000 µM each time.
For the compound `NCCCCCN` [cadaverine], the Kd on ANR-Y1 (setting [2]) and on ANR-L1 (setting [3]) was greater than 1000 µM throughout.
As for `N[C@@H](Cc1c[nH]c2ccccc12)C(=O)O` [tryptophan (Trp), tryptophan], the Kd was greater than 1000 µM at ANR-Y1 (setting [2]), greater than 1000 µM on ANR-L1 (setting [3]) and roughly 6.3 µM at CB8-D1. The “binding to ANR1” value in the test on ANR1 is listed as “binding”; in the test on ANR1 (listed as trytophane) it was “bind”.
Consider `CNC[C@H](O)c1ccc(O)c(O)c1` [epinephrine], for which the Kd on ANR-Y1 (pH 7.3, read-out: Kd(ANR-Y1)) is 26 µM; at ANR-L1 (pH 7.3, read-out: Kd(ANR-L1)) it was greater than 600 µM; on ANR-L2 (ANR-L2, zeolite-L based), 240 µM; at ANR-L2 (setting [6]) it was 39 µM.
As for `NCCc1c[nH]c2ccc(O)cc12` [serotonin (5-HT), serotonin], the Kd was roughly 15 µM in test [1]; 0.07 µM on ANR-Y1 (setting [2]); 0.07 µM and ~0.07 µM at ANR-Y1 (setting [7]); 3.3 µM at ANR-L1 (setting [3]); 14 µM on ANR-L1 (setting [5]); roughly 25 µM on ANR-L1 (ANR-L1 250 µg/mL, ethanolic media (ethanol with 0.2 mM acetic acid), read-out: single site dissociation constant Kd). The Kd on ANR-L1 (ANR-L1 250 µg/mL, water and aqueous buffer, read-out: single site dissociation constant Kd) is roughly 3 µM; on ANR-L1 (read-out: approximated dissociation constant (Kd = 1/slope), Stern-Volmer plot, ANR-L1), 4 µM; on ANR-L2 (read-out: approximated dissociation constant (Kd = 1/slope), Stern-Volmer plot, ANR-L2), 2 µM. In the test on ANR-L1, the “factor weaker binding in the presence” value is on record as ~ 4.
`N[C@@H](Cc1ccc(O)cc1)C(=O)O` [tyrosine]: the Kd at ANR-Y1 (setting [2]) and at ANR-L1 (setting [3]) was greater than 1000 µM in each case.
As for `Nc1ncnc2c1ncn2[C@@H]1O[C@H](CO)[C@@H](O)[C@H]1O` [adenosine], the Kd on ANR-Y1 (setting [2]) and at ANR-L1 (setting [3]) was greater than 1000 µM each time.
With `N[C@H](CO)C(=O)O` [D-serine], the Kd on ANR-Y1 (setting [2]) and at ANR-L1 (setting [3]) was greater than 1000 µM throughout.
Consider `CCC(=O)Nc1ccc(Cl)c(Cl)c1` [propanil], for which the Kd at ANR-Y1 (setting [2]) and at ANR-L1 (setting [3]) was greater than 1000 µM in each case.
Regarding `CNC[C@H](O)c1cccc(O)c1` [phenylephrine], the results for the Kd at ANR-Y1 (setting [2]) and on ANR-L1 (setting [3]) were 55 µM and greater than 600 µM, respectively.
`NC(=O)[C@@H](N)Cc1c[nH]c2ccccc12` [TrpNH2]: the Kd on ANR-Y1 (setting [2]) is 0.11 µM; on ANR-Y1 (setting [7]), roughly 0.11 µM; at ANR-L1 (setting [3]), 32 µM; at CB8-D1 (listed as TrpNF2) it was 2.2 µM; on CB8-D1 it was roughly 2.2 µM; at ANR-Y2 (setting [8]) it was 2.7 µM.
For `NCC(O)c1ccc(O)cc1` (stereo not drawn) [octopamine], the Kd came out at 11 µM on ANR-Y1 (setting [2]) and 40 µM on ANR-L1 (setting [3]).
Regarding `NCCc1ccc(O)c(O)c1` [dopamine], the Kd at ANR-L3 (read-out: approximated dissociation constant (Kd = 1/slope), Stern-Volmer plot, ANR-L3) is 15 µM; at ANR-Y1 (setting [2]), 3.4 µM; at ANR-Y1 (read-out: approximated dissociation constant (Kd = 1/slope), Stern-Volmer plot, ANR-Y1), 4 µM; at ANR-L1 (setting [3]), 16 µM; at ANR-L1 (setting [5]) it was 48 µM; on ANR-Y2 (read-out: approximated dissociation constant (Kd = 1/slope), Stern-Volmer plot, ANR-Y2) it was 10 µM. For the same compound, the Kd is 9.5 µM at ANR-Y2 (setting [8]) and 7 µM at ANR-L4 (read-out: approximated dissociation constant (Kd = 1/slope), Stern-Volmer plot, ANR-L4). In addition, in the test on ANR-L1, the “factor weaker binding in the presence” value was ~ 3.
Regarding `N[C@@H](Cc1ccccc1)C(=O)O` [phenylalanine], the Kd at ANR-Y1 (setting [2]) and on ANR-L1 (setting [3]) was greater than 1000 µM in each case.
Regarding `N[C@@H](CCC(=O)O)C(=O)O` [glutamate], the Kd at ANR-Y1 (setting [2]) and at ANR-L1 (setting [3]) was greater than 1000 µM each time.
As to `NCCc1ccccc1` [phenethylamine], the Kd on ANR-L3 (setting [4]) is 190 µM; at ANR-L4 (ANR-L4, partial emission quenching), 19 µM. The compound also registered a residual emission int. in the test with ANR-L4 (ANR-L4, at 25 µM of analyte) of 75%.
With `COc1ccc2[nH]cc(CCNC(C)=O)c2c1` [melatonin], the Kd on ANR-Y1 (setting [2]) and at ANR-L1 (setting [3]) was greater than 1000 µM throughout.
Consider `c1ccc2[nH]ccc2c1` [indole], for which the Kd at ANR-Y1 (setting [2]) and at ANR-L1 (setting [3]) was greater than 1000 µM in each case.
At ANR-L3 (setting [4]), `NCCc1c[nH]cn1` [histamine] came in with a Kd of 360 µM.
With `CC(=O)OCC[N+](C)(C)C` [acetylcholin], the Kd at ANR-Y1 (setting [2]) and at ANR-L1 (setting [3]) was greater than 1000 µM in each case.
For `N[C@@H](Cc1ccc(O)c(O)c1)C(=O)O` [L-DOPA], the Kd on ANR-Y1 (setting [2]) and on ANR-L1 (setting [3]) was greater than 1000 µM throughout.
`CN1CCCC1c1cccnc1` (stereo not drawn) [nicotine]: in the test with ANRs, the “effect on emission intensity” value is recorded as “no appreciable effect”.
For the compound `NCC(=O)O` [glycine (Gly), glycine], the Kd on ANR-Y1 (setting [2]) and at ANR-L1 (setting [3]) was greater than 1000 µM in each case.
For `N[C@@H](Cc1c[nH]c2ccc(O)cc12)C(=O)O` [5-HTP], the Kd at ANR-Y1 (setting [2]) and at ANR-L1 (setting [3]) was greater than 1000 µM each time.
